Reference: paper PMC9681820, “A PDE10A inhibitor CPL500036 is a novel agent modulating striatal function devoid of most neuroleptic side-effects” (Frontiers in Pharmacology, 2022)

How the values were obtained:
[1] = Plasma protein binding (equilibrium dialysis); assay type: in vitro ADME, rats
Description: The plasma protein binding study was carried out by Eurofins (Poitiers, France) according to the service-provider’s protocol. Briefly, the protein matrix was spiked with the test compound at 10 μM (n = 2) with a final DMSO concentration of 1%. The dialysate compartment was loaded with phosphate buffered saline (PBS, pH 7.4) and the sample side was loaded with equal volume of the spiked protein matrix. The dialysis plate was incubated at 37°C for 4 h. After the incubation, samples were taken from each compartment, diluted with the phosphate buffer followed by addition of acetonitrile and centrifugation. The supernatants were then used for HPLC-MS/MS analysis. Acebutolol, quinidine, and warfarin were tested as reference.

Wistar Han rats = assay: Glucose tolerance test; assay type: in vivo; conditions: 0.3 mg/kg, 1 mg/kg, and 3 mg/kg, p.o., 2 h before glucose bolus, n = 8
Description: Thirty-two male Wistar Han rats (∼10 weeks; Tri-City Academic Laboratory Animal Centre-Research and Services Centre, Medical University of Gdansk) were fasted for 16 h before experimentation. Animals underwent gavage with CPL500036 (0.3 mg/kg, 1 mg/kg or 3 mg/kg) or vehicle 2 h before receiving a glucose bolus (2 g/kg, i.p.; MilliporeSigma). Olanzapine (10 mg/kg) was used as an active comparator and delivered (s.c.) 30 min before the glucose bolus. Blood samples from the tail vein were collected from each rat right before drug administration, just before glucose loading as well as 15 min, 30 min, 60 min, 120 min, and 180 min after glucose administration. The glucose concentration was measured using a glucometer (Accu-ChekGo, Roche Diagnostics, Mannheim, Germany).

other PDE family members = tested on: other PDE family members; design: method as in Moszczyński-Pętkowski et al., 2018; conditions: at a concentration of 100x IC50; ref Moszczyński-Pętkowski et al., 2018; cited from earlier work

Cc1ncc(C)n2nc(-c3ccn4cc(-c5ccccc5)nc4n3)nc12 [CPL500036, 7-[5,8-Dimethyl-(1,2,4)triazolo (1,5-a)pyrazin-2-yl]-2-phenylimidazo (1,2-a) pyrimidine]
free concentration of CPL500036 in rats ([1]; based on the plasma protein binding and pharmacokinetic data): 5%
fraction unbound at 4 h, 10 µM ([1]; rat, plasma, pH 7.4, rats, 10 μM, 37°C, 4 h, n = 2): 0.08
effect on the glucose level, glucose-tolerance test (Wistar Han rats): has no effect on the glucose level
inhibition of other PDE family members (other PDE family members): didn’t inhibit other PDE family members
